Literature values as cited in patent US9408814B2, “Modified release dosage form comprising desvenlafaxine or salts thereof” (WOCKHARDT LIMITED, priority 2010, dated 2016).
Read-outs that look alike come from different tables or passages of the source.

Columns and labels:
[1] = at pH 7.0
[2] = not given; remark: listed apart in the source

octanol:aqueous system partition coefficient [1] | pH dependence of solubility (solubility increases at lower pH) | solubility in water (water) | pKa ([2]; dimethylamino group) | pKa ([2]; phenolic group) | solubility at gastric pH (gastric pH) | solubility at intestinal pH (intestinal pH) | Compound
0.21 | pH dependent | soluble in water | 8.34 | 10.11 |  |  | CN(C)CC(c1ccc(O)cc1)C1(O)CCCCC1 (stereo not shown) [Desvenlafaxine succinate]
 |  |  |  |  | relatively good solubility | poor solubility | CN(C)CC(c1ccc(O)cc1)C1(O)CCCCC1.O=C(O)CCC(=O)O (stereo not shown) [Desvenlafaxine, RS-4-[2-dimethylamino-1-(1-hydroxycyclohexyl)ethyl]phenol]
